Literature values in patent publication US9045248B2 (priority 2007, dated 2015).

Target: influenza virus RNP (Influenza A virus, UniProt P03428)
Details: cited from earlier work

Sequence of influenza virus RNP (P03428 whole entry, looked up): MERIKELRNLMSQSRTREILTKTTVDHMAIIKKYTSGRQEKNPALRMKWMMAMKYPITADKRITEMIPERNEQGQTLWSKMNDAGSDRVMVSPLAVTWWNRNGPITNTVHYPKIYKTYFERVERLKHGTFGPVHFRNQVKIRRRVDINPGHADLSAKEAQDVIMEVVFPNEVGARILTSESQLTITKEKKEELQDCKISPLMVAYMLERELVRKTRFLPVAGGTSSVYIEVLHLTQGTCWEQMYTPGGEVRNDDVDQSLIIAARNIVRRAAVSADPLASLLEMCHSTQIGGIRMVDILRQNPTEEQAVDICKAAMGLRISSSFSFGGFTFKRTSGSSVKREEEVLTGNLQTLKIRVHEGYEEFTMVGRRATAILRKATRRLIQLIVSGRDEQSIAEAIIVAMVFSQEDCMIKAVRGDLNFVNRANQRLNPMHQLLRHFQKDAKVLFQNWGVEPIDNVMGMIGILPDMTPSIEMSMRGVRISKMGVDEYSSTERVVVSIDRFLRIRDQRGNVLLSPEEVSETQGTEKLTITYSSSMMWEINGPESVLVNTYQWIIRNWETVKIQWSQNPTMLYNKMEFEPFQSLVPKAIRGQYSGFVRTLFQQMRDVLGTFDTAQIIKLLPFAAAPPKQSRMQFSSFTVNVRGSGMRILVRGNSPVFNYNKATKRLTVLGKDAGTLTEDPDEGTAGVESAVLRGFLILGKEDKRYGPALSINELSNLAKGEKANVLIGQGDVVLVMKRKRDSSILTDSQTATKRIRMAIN

Row | Compound | IC50 [µM]
1 | Nc1nc2c(ncn2[C@@H]2O[C@H](COP(=O)(O)OP(=O)(O)OP(=O)(O)O)[C@@H](O)[C@H]2O)c(=O)[nH]1 [GTP] | 550
2 | C[n+]1cn([C@@H]2O[C@H](COP(=O)(O)OP(=O)(O)OP(=O)(O)O)[C@@H](O)[C@H]2O)c2nc(N)[nH]c(=O)c21 [m^7GTP, 7-methyl-guanosine triphosphate] | 113
